Where two headings read alike, the source gives them in different places.
Assays:
[1] = tested on: E. coli clinical strain E06; experiment: microbe, parasite or virus in culture; settings: clinical strain E06, 18 h
Protocol: (§1) The clinical strains used in this study were obtained from a tertiary healthcare facility located in Guiyang, a city situated within the Guizhou Province of China. The E. coli ATCC 25922 was obtained from the Key and Characteristic Laboratory of Modern Pathogen Biology at Guizhou Medical University in Guiyang, China. All strains were stored at –80°C in LB medium and routinely cultured at LB medium at 37°C.
(§2) The MIC were determined by a micro dilution method in Mueller-Hinton broth (MHB) ([Cuenca-Estrella et al., 2010]). The final concentration of bacterial suspension in MHB were 1.0×10^6 CFU/mL. The final concentration of MR-22 ranged 1 ~ 256 μg/mL in 96 wells plate broth at 37°C for 16~18 h. Imipenem was employed as positive control, bacterial grown without treatment as negative control and MHB as blank control. MIC determination was performed by reading the OD600 nm. Take 100 μL samples in holes that have never seen bacterial growth and place them on the LB agar board. The concentration of MR-22 with no bacterial growth was defined as the MBC.

[2] = tested on: E. coli clinical strain E10; experiment: microbe, parasite or virus in culture; settings: clinical strain E10, 18 h
Protocol: as §1, §2

[3] = tested on: E. coli clinical strain E01; experiment: microbe, parasite or virus in culture; settings: clinical strain E01, 18 h
Protocol: as §1, §2

[4] = tested on: E. coli clinical strain E21; experiment: microbe, parasite or virus in culture; settings: clinical strain E21, 18 h
Protocol: as §1, §2

[5] = tested on: E. coli clinical strain E16; experiment: microbe, parasite or virus in culture; settings: clinical strain E16, 18 h
Protocol: as §1, §2

[6] = tested on: E. coli clinical strain E11; experiment: microbe, parasite or virus in culture; settings: clinical strain E11, 18 h
Protocol: as §1, §2

[7] = tested on: E. coli clinical strain E03; experiment: microbe, parasite or virus in culture; settings: clinical strain E03, 18 h
Protocol: as §1, §2

[8] = tested on: E. coli clinical strain E19; experiment: microbe, parasite or virus in culture; settings: clinical strain E19, 18 h
Protocol: as §1, §2

[9] = tested on: E. coli clinical strain E07; experiment: microbe, parasite or virus in culture; settings: clinical strain E07, 18 h
Protocol: as §1, §2

[10] = tested on: E. coli clinical strain E18; experiment: microbe, parasite or virus in culture; settings: clinical strain E18, 18 h
Protocol: as §1, §2

[11] = tested on: E. coli clinical strain E05; experiment: microbe, parasite or virus in culture; settings: clinical strain E05, 18 h
Protocol: as §1, §2

[12] = tested on: E. coli clinical strain E02; experiment: microbe, parasite or virus in culture; settings: clinical strain E02, 18 h
Protocol: as §1, §2

[13] = tested on: E. coli clinical strain E13; experiment: microbe, parasite or virus in culture; settings: clinical strain E13, 18 h
Protocol: as §1, §2

[14] = tested on: E. coli clinical strain E12; experiment: microbe, parasite or virus in culture; settings: clinical strain E12, 18 h
Protocol: as §1, §2

[15] = tested on: E. coli clinical strain E04; experiment: microbe, parasite or virus in culture; settings: clinical strain E04, 18 h
Protocol: as §1, §2

[16] = tested on: E. coli clinical strain E22; experiment: microbe, parasite or virus in culture; settings: clinical strain E22, 18 h
Protocol: as §1, §2

[17] = tested on: E. coli clinical strain E14; experiment: microbe, parasite or virus in culture; settings: clinical strain E14, 18 h
Protocol: as §1, §2

[18] = tested on: E. coli clinical strain E15; experiment: microbe, parasite or virus in culture; settings: clinical strain E15, 18 h
Protocol: as §1, §2

[19] = tested on: E. coli clinical strain E20; experiment: microbe, parasite or virus in culture; settings: clinical strain E20, 18 h
Protocol: as §1, §2

[20] = tested on: E. coli clinical strain E08; experiment: microbe, parasite or virus in culture; settings: clinical strain E08, 18 h
Protocol: as §1, §2

[21] = tested on: E. coli clinical strain E09; experiment: microbe, parasite or virus in culture; settings: clinical strain E09, 18 h
Protocol: as §1, §2

[22] = tested on: E. coli clinical strain E17; experiment: microbe, parasite or virus in culture; settings: clinical strain E17, 18 h
Protocol: as §1, §2

E. coli E19 = type: cell-based, Escherichia coli; settings: 1 μg/ml trypsin, 37°C, mean ± SD
Protocol: (§3) MR-22 was mixed with a solution containing 1 μg/ml of trypsin and incubated at 37°C for 2 to 12h. Then, trypsin inactivation was carried out at 60°C for 30 min. The antimicrobial activity of the samples was tested to assess the activity of MR-22 and its analogs after the treatment by trypsin. The untreated MR-22 served as the control group for comparative analysis.

E. coli ATCC 25922 = type: cell-based, Escherichia coli; settings: 1 μg/ml trypsin, 37°C, mean ± SD
Protocol: as §3

## H-MAKRRKKAKKKAKKAKKRRRRR-NH2 [MR-22]
[1]
  MBC: 8 µg/mL
  MIC: 8 µg/mL
[2]
  MBC: 16 µg/mL
  MIC: 16 µg/mL
[3]
  MBC: 16 µg/mL
  MIC: 16 µg/mL
[4]
  MBC: 8 µg/mL
  MIC: 8 µg/mL
[5]
  MBC: 16 µg/mL
  MIC: 16 µg/mL
[6]
  MBC: 16 µg/mL
  MIC: 16 µg/mL
[7]
  MBC: 16 µg/mL
  MIC: 16 µg/mL
[8]
  MBC: 32 µg/mL
  MIC: 32 µg/mL
[9]
  MBC: 16 µg/mL
  MIC: 16 µg/mL
[10]
  MBC: 8 µg/mL
  MIC: 8 µg/mL
[11]
  MBC: 16 µg/mL
  MIC: 16 µg/mL
[12]
  MBC: 16 µg/mL
  MIC: 16 µg/mL
[13]
  MBC: 16 µg/mL
  MIC: 16 µg/mL
[14]
  MBC: 16 µg/mL
  MIC: 16 µg/mL
[15]
  MBC: 8 µg/mL
  MIC: 8 µg/mL
[16]
  MBC: 16 µg/mL
  MIC: 16 µg/mL
[17]
  MBC: 16 µg/mL
  MIC: 16 µg/mL
[18]
  MBC: 4 µg/mL
  MIC: 4 µg/mL
[19]
  MBC: 8 µg/mL
  MIC: 8 µg/mL
[20]
  MBC: 8 µg/mL
  MIC: 8 µg/mL
[21]
  MBC: 16 µg/mL
  MIC: 16 µg/mL
[22]
  MBC: 32 µg/mL
  MIC: 32 µg/mL
E. coli E19; 4 h
  Rate of inhibition after incubation with trypsin: 17.74 ± 2.88%
E. coli E19; 8 h
  Rate of inhibition after incubation with trypsin: 5.41 ± 1.20%
E. coli E19; 10 h
  Rate of inhibition after incubation with trypsin: 4.49 ± 1.54%
E. coli E19; 12 h
  Rate of inhibition after incubation with trypsin: 0.64 ± 0.46%
E. coli ATCC 25922; 4 h
  Rate of inhibition after incubation with trypsin: 22.32 ± 1.71%
E. coli ATCC 25922; 8 h
  Rate of inhibition after incubation with trypsin: 3.40 ± 0.26%
E. coli ATCC 25922; 10 h
  Rate of inhibition after incubation with trypsin: 1.85 ± 0.18%
E. coli ATCC 25922; 12 h
  Rate of inhibition after incubation with trypsin: 1.33 ± 0.22%
